The text below walks through data of patent EP0665223A1, “Antitumor agent, novel 3(2H)-pyridazinone derivatives and their preparation” (TAKEDA CHEMICAL INDUSTRIES, LTD., priority 1994, dated 1995).

Assay [1] concerns pancreatic cancer cell AsPC-1. Briefly: Suppressing proliferation of pancreatic cancer cell AsPC-1 in vitro (MTT, number of living cells). Format: cell-based. The conditions noted are these: Homo sapiens, ASPC1, 72 h, AsPC-1, RPMI 1640 medium, incubated 3 days with test compound. Here is the method: (§1) A cell suspension of pancreatic cancer cell AsPC-1 (20000/ml) in RPMI 1640 medium (Flow Laboratories) supplemented with 10% of inactivated fetal calf serum, 1 mM of sodium pyruvate and 25 mM of HEPES [2-{4-(2-hydroxyethyl)-1-piperazinyl}ethanesulfonic acid] was added to 96-well micro-culture plates (50ul/well). The culture plates were incubated at 37°C in a 5% CO₂ incubator. On the following day, the solution of each test compound dissolved in dimethylformamide and diluted (3-fold steps) was added (50 ul/well), which was incubated for further 3 days. The culture broth containing the test compounds was eliminated, and the cells were washed, to which was added a solution of MTT pigment, and the number of living cells was calculated [Tada et al. J. Immunol. Methods, 93 p.157 (1986)]. The number of cells in the control group containing no test compound was assumed to be 100%, and the respective ratios of cell numbers in groups containing the respective test compounds were calculated to thereby determine the concentrations (IC₅₀ value) of the respective test compounds necessary to suppress the number of living cells to 50% of that of the control group.

Assay [2] concerns pancreatic cancer cell strain PC-3. Briefly: Suppressing proliferation of PC-3 cells in vitro (MTT, number of living cells). The note with it: 96 h, PC-3, F-12K medium, incubated 4 days with test compound. In kind it is cell-based. Here is the method: as §1
For the test of pancreatic cancer cell strain PC-3, the same method in the case of AcPC-1 was employed excepting the use of F-12K medium containing 10% inactivated fetal calf serum (Flow Laboratories) and change of the incubation period after adding the test compounds to 4 days, to thereby determine the IC₅₀ value (nm).

Assay [3] has as its system human pancreatic carcinoma cells AsPC-1. The assay is described as follows: Suppressing proliferation of pancreatic carcinoma in vivo (AsPC-1 transplanted subcutaneously into nude mice, tumor volume). The arrangement: species or system Balb/c nude mice. The conditions noted are these: once for two days during 14 days, tumor volume of treated group to control group. Here is the method: The human pancreatic carcinoma cells AsPC-1 (3x10⁶cells) were transplanted subcutaneously into Balb/c nude mice (7 week old) at the flank. On 35th day after the transplantation, the tumor size was measured. Five mice (per group) with almost the same tumor size were employed for the experiment. These groups were respectively administered intraperitoneally with No. 1, 2 and 19 of the compounds of this invention dissolved in corn oil, once for two days during 14 days. On the day following the completion of administration, the tumor size was measured, and the tumor volume was calculated by the formula: Tumor volume = major axis x minor axis x minor axis x (1/2) [formula] . The ratio of the tumor volume in the treated group to that in a control group to which corn oil alone was administered was calculated as a proliferation ratio.

[4] abbreviates: Dosage 16.7 mg/kg intraperitoneally in corn oil.

As to `CC(C)(C)c1ccc(CSc2cnn(C(C)(C)C)c(=O)c2Cl)cc1` [Compound 1, 2-t-butyl-4-chloro-5-(4-t-butyl)benzylthio-3(2H)pyridanzine], the IC50 was 16 nM in assay [1] and < 1.52 nM in assay [2]. Further, the “Proliferation ratio (%)” value in assay [3] (Dosage 6.7 mg/kg intraperitoneally in corn oil) came out at 56%.

On to `CC(C)(C)n1ncc(SCc2ccccc2)c(Cl)c1=O` [Compound 2, 2-t-butyl-4-chloro-5-benzylthio-3 (2H)pyridazinone], for which the values for the 50% inhibitory concentration (IC50) in assay [1] and in assay [2] were 440 nM and 120 nM, respectively. In assay [3] (setting [4]), the “Proliferation ratio (%)” value amounted to 48%.

As to `CC(C)(C)c1ccc(COc2cnn(C(C)(C)C)c(=O)c2Cl)cc1` [Compound 19, 2-t-butyl-4-chloro-5-(4-t-butyl)benzyloxy-3(2H)pyridazinone], the IC50 in assay [1] was 180 nM; in assay [2], < 1.52 nM. For the same compound, the “Proliferation ratio (%)” value in assay [3] (setting [4]) amounted to 29%.

On to `CC(C)(C)n1ncc(SCc2ccc(-c3csnn3)cc2)c(Cl)c1=O` [Compound 115, 2-t-butyl-4-chloro-5-[4-(1,2,3-thiadiazol-4-yl)benzylthio]-3(2H)-pyridazinone], for which the half-inhibitory concentration (IC50) in assay [1] was 49 nM; in assay [2], < 1.52 nM.

As for `CC(C)(C)n1ncc(OCc2ccc(-c3csnn3)cc2)c(Cl)c1=O` [Compound 116, 2-t-butyl-4-chloro-5-[4-(1,2,3-thiadiazol-4-yl)benzyloxy]-3(2H)-pyridazinone], the IC50 in assay [1] worked out at 370 nM; in assay [2], 14 nM.

As to `CC(C)(C)n1ncc(SCc2ccc(-c3ncns3)cc2)c(Cl)c1=O` [Compound 117, 2-t-butyl-4-chloro-5-[4-(1,2,4-thiadiazol-5-yl)benzylthio]-3(2H)-pyridazinone], the half-maximal inhibitory concentration (IC50) in assay [1] turned out to be 100 nM; in assay [2], 2 nM.

For `CC(C)(C)n1ncc(SCc2ccc(-c3cnco3)cc2)c(Cl)c1=O` [Compound 119, 2-t-butyl-4-chloro-5-[4-(1,3-oxazol-5-yl)benzylthio]-3(2H)-pyridazinone], the IC50 in assay [1] was 370 nM; in assay [2], < 1.52 nM.
